Reference: PubChem BioAssay (NCI)
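How tested: cells in 96-well plates exposed to compound for 48 hours at five concentrations. GI50: concentration for 50% inhibition of growth. TGI marks complete inhibition of growth.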

How the values were obtained:
Assay in all cases: inhibition of tumour cell growth, NCI panel, 48 h
[1] = tested on: MOLT-4 leukemia
[2] = tested on: MDA-MB-231 breast
[3] = tested on: HL-60(TB) leukemia
[4] = tested on: T-47D breast
[5] = tested on: SNB-75 CNS
[6] = tested on: U251 CNS
[7] = tested on: SR leukemia
[8] = tested on: NCI/ADR-RES ovarian
[9] = tested on: IGROV1 ovarian
[10] = tested on: LOX IMVI melanoma

SMILES | GI50 [1] [µM] | TGI [1] [µM] | GI50 [2] [µM] | TGI [2] [µM] | GI50 [3] [µM] | TGI [3] [µM] | GI50 [4] [µM] | TGI [4] [µM] | GI50 [5] [µM] | TGI [5] [µM] | GI50 [6] [µM] | TGI [6] [µM] | GI50 [7] [µM] | TGI [7] [µM] | GI50 [8] [µM] | TGI [8] [µM] | GI50 [9] [µM] | TGI [9] [µM] | GI50 [10] [µM] | TGI [10] [µM]
Cc1nc2ccc(-n3ncc(C(=O)c4cc5ccccc5[nH]4)c3N)cc2[nH]1 | 5.99 | 56.1 | 10.6 | 40.7 | 11.9 | 45.9 | 6.74 | 45.2 | 0.945 | > 100 | 1.44 | > 100 | 2.82 | 31.2 | 11.9 | 80.2 | 9.74 | > 100 | 2.57 | 15.2
CSC1=CC(=O)c2ccccc2C1=O | 1.64 | 4.86 | 1.29 | 3.02 | 1.87 | 4.33 | 0.41 | 2.1 | 11.6 | 24.2 | 11 | 23.8 | 3.11 | 8.98 | 2.81 | 11.7 | 3.7 | 13.2 | 1.75 | 3.92
CS(=O)(=O)Nc1cc(-c2ccc3ncc(C#N)c(Nc4ccc(F)c(Cl)c4)c3c2)cnc1Cl | 0.0783 | 0.487 | 0.237 | 0.786 | 0.12 | 0.741 | 0.0351 | 0.403 | 0.0251 | 0.507 | 0.098 | 1.19 | 0.161 | 1.12 | 0.633 | > 100 | 0.0609 | 0.372 | 0.169 | 0.698
COc1ccc(-c2nc3sccn3c2-c2ccnc(NCCNS(=O)(=O)c3ccc(C(F)(F)F)cc3)n2)cc1 | 0.503 | > 100 | 1.22 | 42.5 | 0.494 | > 100 | 1.69 | > 100 | 1.98 | 10.7 | 4.45 | > 100 | 0.972 | > 100 | 3.12 | > 100 | 3.18 | > 100 | 3.26 | 19.2
CCOC(=O)c1c(C)n([O-])c2cc(F)c(F)cc2[n+]1=O | 0.541 | 6.62 | 0.955 | 2.58 | 0.105 |  | 1.87 | 3.69 | 1.91 | 3.54 | 1.51 | 3.04 | 0.0482 | > 100 | 0.432 | 1.98 | 0.491 |  | 0.514 | 1.63
CCOC(=O)c1c(-c2ccccc2)n2c(=O)cc(C)c3c(O)c(O)cc1c32 | 3.81 | 17.7 | 6.64 | 27.7 | 3.34 | 10.8 | 5.43 | > 100 | 8.95 | 88.1 | 4.98 | 22.7 | 3.59 | 17.5 | 2.47 | > 100 | 4.99 | 19.2 | 4.96 | 22.8
CC1(C)N=C(N)N=C(N)N1c1ccc(OCC(=O)Nc2ccc(S(=O)(=O)F)cc2Cl)c(Cl)c1 | 6.74 | > 100 | 54.4 | > 100 | 1.46 | > 100 | > 100 | > 100 | 5.72 | > 100 | 5.73 | > 100 | 0.82 | > 100 | 61.1 | > 100 | 0.42 | > 100 | 1.12 | > 100
Nc1nc2ccc(CNc3ccc(C(=O)NC(CC(=O)O)C(=O)O)cc3)cc2c(=O)[nH]1 (stereo not drawn) | 16.3 | > 100 | > 100 | > 100 | 1.13 | > 100 | > 100 | > 100 | > 100 | > 100 | 7.49 | > 100 | 0.52 | > 100 | 2.71 | > 100 | 3.32 | > 100 | 0.472 | > 100
CCc1ccc(Oc2c(-c3ccc(OCCc4cccc(C(F)(F)F)c4)cc3O)n[nH]c2C(F)(F)F)cc1 | 1.84 | 7.05 | 4.94 | 11.1 | 5.2 | 12.9 | 1.43 | 4.95 | 5.82 | 12.1 | 1.81 | 6.44 | 3.06 | 12 | 5.19 | 11.9 | 2.51 | 8.72 | 1.94 | 6.89
